Assay results published in patent publication US7307087B2, “Treatment of affective disorders by the combined action of a nicotinic receptor agonist and a monoaminergic substance” (Neurosearch A/S, priority 2000, dated 2007).

Assays:
[1] = tested on: NMRI mice; conditions: systemic administration; mice in a small water pool; background statement; cited from earlier work
[2] = tested on: NMRI mice; assay: Mouse Forced Swim Test (mFST); assay type: in vivo; conditions: compound alone, 0.3, 1, 3, 10 mg/kg s.c., 30 minutes pre-treatment
Description: The Forced Swim Test therefore is considered predictive of a potential antidepressant pharmacological effect.
Female NMRI mice (of 20-25 g) are habituated to the laboratory (a 12 hour light/dark cycle) for at least 16 hours before the experiment.
30 minutes after s.c. injection of either vehicle or drug, the mouse is placed in a glass beaker (d=16 cm; 5000 ml) with water (24° C.) up till 10 cm from the top edge. For the subsequent 6 minutes the duration of immobility defined as swim speed less than 2.5 cm/minute, and forced swim distance defined as distance swum with a speed above 5 cm/minute, is recorded. There are 8 mice in each group.
The activity of the mouse is tracked by the View Point system for the measurement of distance, immobility, and speed.
Time of immobility ±SEM (seconds) and forced swim distance ±SEM (cm) in 15 seconds time intervals are presented and plotted in SigmaPlot. Mean total immobility time and total swim distance in the time interval 60-360 seconds are calculated and presented for each group. The dose showing significant difference from the vehicle treated group is reported as the Minimal Effective Dose (MED s.c. mg/kg).

| melting point [°C] | SMILES | other results |
| --- | --- | --- |
| 187 to 190 | Ic1ccc(N2CCNCC2)nn1.O=C(O)/C=C/C(=O)O |  |
| 195 to 196 | Clc1cncc(N2CCNCC2)c1.O=C(O)/C=C/C(=O)O |  |
| 217 | O=C(O)/C=C/C(=O)O.c1ccc2c(c1)ncn2-c1ccc(N2CCNCC2)nn1 |  |
| 143.9 | CN1C2CCC1CN(c1ccccc1)CC2.O=C(O)/C=C/C(=O)O (racemic) |  |
|  | CNCCCN1c2ccccc2CCc2ccccc21 [Desipramine] | forced swim distance [1]: induces an increase in the forced swim distance |
|  | Cl.Cl.Clc1ccc(N2CCNCC2)cn1 [Compound 1C3, 1-(6-Chloro-3-pyridyl)-piperazine Dihydrochloric Acid Salt] | forced swimming [2]: did not affect forced swimming |
